Data: patent publication US20230312587A1, “PTERIDINONE COMPOUNDS AND USES THEREOF” (Vertex Pharmaceutical Incorporated, priority 2018, published 2023)
Read-outs that look alike come from different tables or passages of the source.

Assays:
Type in all cases: cell-based
HepG2 parental = assay: In vitro cell viability (CellTiter-Glo), HepG2 parental; details: 96 hours
Procedure: (§1) HEK293 cells containing empty pCLPCx vector (HEK293 empty), HEK293 cells stably over-expression WFS1 (HEK293 WFS1), HepG2, and HepG2 cells where WFS1 was depleted via CRISPR/Cas9 (HepG2 WFS1 KO) cells were plated into 96-well black plates (Corning, product #3904) in 100 microliters of complete DMEM cell culture media [DMEM (Life Technologies, product #11960-051) media supplemented with 10% FBS (Hyclone, catalog #SH30071.03), antimycotic/antibiotic (Life Technologies, product #15240-062), and Glutamax (Life Technologies, product #35050-061)] at 1,000 (HEK293) or 5,000 (HepG2) cells per well. Cells were allowed to attach and grow overnight, after which compounds are added at various concentrations. Cell viability was assessed 96 hrs after compound addition with CellTiter-Glo reagent (Promega, catalog #G7570) according to manufacturer's protocol and measurement on a Pherastar luminescence plate reader (BMG Labtech).
To determine the effect of WFS1 depletion on compound mediated inhibition of cell viability, parental HepG2 cells and HepG2 cells where WFS1 was deleted by CRISPR/Cas9 were exposed to increasing concentrations of either Compound 136 or Compound 253 for 96 hours after which time viability was determined using Cell Titer Glo reagent (Promega). […] The IC50s for the viability of both the HepG2 parental and WFS1 knockout cells are summarized in Table 47: A<0.5 μM; 0.5 μM≤<2.0 μM; 2.0 μM≤C<10.0 μM; D≥[…].

HepG2 XBP1(u)-Luc cells = assay: HepG2 XBP1 reporter assay; details: Homo sapiens, 6 h
In short: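 Reporter cells are HepG2 stably carrying unspliced XBP1 fused to firefly luciferase, which becomes in-frame after IRE1alpha-mediated splicing. SteadyGlo luminescence was normalized to DMSO-treated cells for IC50 calculation.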

[1] = test system: Hek293 WFS1 over-expressor; assay: In vitro cell viability (CellTiter-Glo), Hek293 WFS1 over-expressor
Procedure: WFS1 cDNA is amplified from clone RC202901 (Origene Technologies) with primers 5′-TCCGCGGCCCCAAGCTTATCGCCATGGACTCCAACACTGC-3′ (SEQ ID NO: 1), 5′-GATGGGCCCAGATCTCGAGTCAGGCCGCCGACAGGAATG-3′ (SEQ ID NO: 2) and cloned into a retroviral mammalian expression vector pCLPCX using HD Infusion (CLONTECH) at Hind3-Xhol sites using standard procedures. The resulting clone is identified as pCLPCX_WFS1.
HEK293 (ATCC, catalog #CRL-1573) cells are plated in 10 cm dishes (Corning, product #430167) into 10 mL of complete DMEM cell culture media [DMEM (Life Technologies, product #11960-051) media supplemented with 10% FBS (Hyclone, catalog #SH30071.03), antimycotic/antibiotic (Life Technologies, product #15240-062), and Glutamax (Life Technologies, product #35050-061)] at 3×10^6 cells per dish. Cells are allowed to attach and grow overnight at 37° C. in humidified 5% CO2. Cells are co-transfected with pVSV-G, pCMV-Gag/Pol and pCLPCX_WFS1 using Fugene 6 (Promega, catalog #E2691) according to manufacturer's protocol. Separately, cells are co-transfected with pVSV-G, pCMV-Gag/Pol and pCLPCX to produce control retrovirus. Cell culture media containing retrovirus (viral supernatant) is collected at 48 and 72 hours following transfection, filtered through a 0.4 uM filter, and stored at −80° C.
HEK293 cells are plated in 6 well plates (Corning, product #3516) in 2 mL of complete DMEM cell culture media at 1×10^5 cells well and allowed to attach and grow overnight at 37° C. in humidified 5% CO2. The following day, the media is replaced with viral supernatant to which 10 ug/ml of Polybrene® (Santa Cruz Biotech, catalog #sc-134220) is added. Viral supernatant is replaced 24 hours later with complete DMEM media. Transduced cells are selected in complete DMEM cell culture media containing 1 microgram/mL of puromycin (Life Technologies, catalog #A1113803).
as §1
The IC50s for the viability of both the Hek293 empty vector and WFS1 over-expressing cells are summarized in Table 47: A<0.06 μM; 0.06 μM≤B<0.6 μM; 0.6 μM≤C<3.0 μM; D≥3.0 μM.

[2] = Homo sapiens, read-out: HepG2 viability
[3] = Homo sapiens, HEK293, Hek293 WFS1 over-expressing cells, read-out: Hek293 WFS1 viability

Molecule: Cc1nc(NCc2cnn(Cc3ccc(C(F)(F)F)cc3)c2)nc2c1NC(=O)[C@H](C)N2C [Compound 149, (7S)-4,7,8-trimethyl-2-(((1-(4-(trifluoromethyl)benzyl)-1H-pyrazol-4-yl)methyl)amino)-7,8-dihydropteridin-6(5H)-one]
- IC50 (HepG2 parental; [2]): < 500 nM
- IC50 (HepG2 XBP1(u)-Luc cells): < 600 nM
- IC50 [1, 3]: < 60 nM

Molecule: Cc1nc(NCc2cnn(Cc3ccc(F)nc3)c2)nc2c1NC(=O)[C@H](C(C)C)N2C [Compound 384, (7S)-2-(((1-((6-fluoropyridin-3-yl)methyl)-1H-pyrazol-4-yl)methyl)amino)-7-isopropyl-4,8-dimethyl-7,8-dihydropteridin-6(5H)-one]
- IC50 (HepG2 parental; [2]): < 500 nM
- IC50 (HepG2 XBP1(u)-Luc cells): 600 to 2000 nM
- IC50 [1, 3]: < 60 nM

Molecule: Cc1nc(NCc2cnn(Cc3ccc(C(F)(F)F)nc3)c2)nc2c1NC(=O)C1(CCC1)N2C [Compound 398, 4′,8′-dimethyl-2′-(((1-((6-(trifluoromethyl)pyridin-3-yl)methyl)-1H-pyrazol-4-yl)methyl)amino)-5′,8′-dihydro-6′H-spiro[cyclobutane-1,7′-pteridin]-6′-one]
- IC50 (HepG2 parental; [2]): 500 to 2000 nM
- IC50 (HepG2 XBP1(u)-Luc cells): 600 to 2000 nM
- IC50 [1, 3]: < 60 nM

Molecule: Cc1nc(NCc2cnn(CCc3ccc(F)cc3)c2)nc2c1N(C)C(=O)[C@H](C)N2C [Compound 8, (7S)-2-(((1-(4-fluorophenethyl)-1H-pyrazol-4-yl)methyl)amino)-4,5,7,8-tetramethyl-7,8-dihydropteridin-6(5H)-one]
- IC50 (HepG2 parental; [2]): 2000 to 10000 nM
- IC50 (HepG2 XBP1(u)-Luc cells): 2000 to 10000 nM
- IC50 [1, 3]: ≥ 3000 nM

Molecule: Cc1nc(N[C@H]2C[C@H](COc3cc(F)c(F)c(F)c3)C2)nc2c1NC(=O)[C@H](C)N2C [Compound 258, (7S)-4,7,8-trimethyl-2-((trans-3-((3,4,5-trifluorophenoxy)methyl)-cyclobutyl)amino)-7,8-dihydropteridin-6(5H)-one]
- IC50 (HepG2 parental; [2]): 2000 to 10000 nM
- IC50 [1, 3]: 60 to 600 nM

Molecule: Cc1nc(NCc2cnn(Cc3ccc(F)cc3)c2)nc2c1NC(=O)[C@H](C)N2C [Compound 4, (7S)-2-(((1-(4-fluorobenzyl)-1H-pyrazol-4-yl)methyl)amino)-4,7,8-trimethyl-7,8-dihydropteridin-6(5H)-one]
- IC50 (HepG2 parental; [2]): 2000 to 10000 nM
- IC50 [1, 3]: < 60 nM

Molecule: Cc1nc(N[C@@H]2CC[C@@H](Oc3cc(F)c(F)c(F)c3)C2)nc2c1N(C)C(=O)[C@H](C)N2C [Compound 272, (S)-4,5,7,8-tetramethyl-2-(((1R,3R)-3-(3,4,5-trifluorophenoxy)cyclopentyl)amino)-7,8-dihydropteridin-6(5H)-one]
- IC50 (HepG2 parental; [2]): < 500 nM
- IC50 [1, 3]: < 60 nM

Molecule: Cc1nc(N[C@H]2C[C@H](Oc3cc(F)c(F)c(F)c3)C2)nc2c1N(C)C(=O)[C@H](C)N2C [Compound 253, (7S)-4,5,7,8-tetramethyl-2-((trans-3-(3,4,5-trifluorophenoxy)cyclobutyl)amino)-7,8-dihydropteridin-6(5H)-one]
- IC50 (HepG2 parental; [2]): 500 to 2000 nM
- IC50 (HepG2 parental; Homo sapiens, cell viability, Cell Titer Glo, read-out: IC50): 640 nM
- IC50 (HepG2 parental; Homo sapiens, cell viability, read-out: IC50 class): 500 to 2000 nM
- IC50 [1, 3]: < 60 nM
- IC50 ([1]; Homo sapiens, HEK293, cell viability, Hek293 WFS1 over-expressor, read-out: IC50): 12 nM
- IC50 ([1]; Homo sapiens, HEK293, cell viability, Hek293 WFS1 over-expressor, read-out: IC50 class): < 60 nM
- reduction in the IC50 on over-expression of WFS1 in Hek293 cells ([1]; cell viability, WFS1 over-expressor vs empty vector): > 1000 fold

Molecule: Cc1nc(N[C@H]2C[C@@H](COc3cc(F)c(F)c(F)c3)C2)nc2c1NC(=O)[C@H](C)N2C [Compound 257, (7S)-4,7,8-Trimethyl-2-((cis-3-((3,4,5-trifluorophenoxy)methyl)cyclobutyl)-amino)-7,8-dihydropteridin-6(5H)-one]
- IC50 (HepG2 parental; [2]): 2000 to 10000 nM
- IC50 [1, 3]: < 60 nM

Molecule: Cc1nc(NCc2cnn(Cc3ccc(C(F)(F)F)nc3)c2)nc2c1NC(=O)[C@H](C)N2C(C)C [Compound 385, (7S)-8-isopropyl-4,7-dimethyl-2-(((1-((6-(trifluoromethyl)pyridin-3-yl)methyl)-1H-pyrazol-4-yl)methyl)amino)-7,8-dihydropteridin-6(5H)-one]
- IC50 (HepG2 XBP1(u)-Luc cells): < 600 nM
- IC50 [1, 3]: < 60 nM

Molecule: Cc1nc(NCc2cnn(Cc3ccc(F)cc3)c2)nc2c1N(C)C(=O)[C@H](C)N2C [Compound 1, (7S)-2-(((1-(4-fluorobenzyl)-1H-pyrazol-4-yl)methyl)amino)-4,5,7,8-tetramethyl-7,8-dihydropteridin-6(5H)-one]
- IC50 (HepG2 parental; [2]): < 500 nM
- IC50 [1, 3]: < 60 nM

Molecule: (7S)-4,7,8-trimethyl-2-((trans-3-(3,4-difluorophenoxy)cyclobutyl)amino)-7,8-dihydropteridin-6(5H)-one [Compound 251]
- IC50 (HepG2 parental; read-out: HepG2 viability): ≥ 10000 nM
- IC50 ([1]; Hek293 WFS1 over-expressing cells, read-out: Hek293 WFS1 viability): 60 to 600 nM

Molecule: Cc1nc(NCc2cnn(Cc3cccc(C(C)C)c3)c2)nc2c1NC(=O)[C@H](C)N2C [Compound 80, (7S)-2-(((1-(3-isopropylbenzyl)-1H-pyrazol-4-yl)methyl)amino)-4,7,8-trimethyl-7,8-dihydropteridin-6(5H)-one]
- IC50 (HepG2 XBP1(u)-Luc cells): < 600 nM
- IC50 [1, 3]: < 60 nM

Molecule: Cc1nc(NCc2cnn(Cc3cc(F)c(F)c(F)c3)c2)nc2c1NC(=O)[C@H](C)N2C [Compound 122, (7S)-4,7,8-trimethyl-2-(((1-(3,4,5-trifluorobenzyl)-1H-pyrazol-4-yl)methyl)amino)-7,8-dihydropteridin-6(5H)-one]
- IC50 (HepG2 XBP1(u)-Luc cells): < 600 nM
- IC50 [1, 3]: < 60 nM

Molecule: Cc1nc(NCc2cnn(Cc3cc(C(F)(F)F)nn3C)c2)nc2c1NC(=O)[C@H](C1CC1)N2C [Compound 396, (7S)-7-Cyclopropyl-4,8-dimethyl-2-(((1-((1-methyl-3-(trifluoromethyl)-1H-pyrazol-5-yl)methyl)-1H-pyrazol-4-yl)methyl)amino)-7,8-dihydropteridin-6(5H)-one]
- IC50 (HepG2 XBP1(u)-Luc cells): < 600 nM
- IC50 [1, 3]: < 60 nM

Molecule: Cc1cc(F)ncc1Cn1cc(CNc2nc(C)c3c(n2)N(C)[C@@H](C)C(=O)N3)cn1 [Compound 94, (7S)-2-(((1-((6-fluoro-4-methylpyridin-3-yl)methyl)-1H-pyrazol-4-yl)methyl)amino)-4,7,8-trimethyl-7,8-dihydropteridin-6(5H)-one]
- IC50 (HepG2 XBP1(u)-Luc cells): 600 to 2000 nM
- IC50 [1, 3]: < 60 nM

Molecule: Cc1nc(N[C@H]2C[C@H](Sc3cc(F)c(F)c(F)c3)C2)nc2c1NC(=O)[C@H](C)N2C [Compound 329, (7S)-4,7,8-trimethyl-2-((trans-3-((3,4,5-trifluorophenyl)thio)-cyclobutyl)amino)-7,8-dihydropteridin-6(5H)-one]
- IC50 (HepG2 XBP1(u)-Luc cells): < 600 nM
- IC50 [1, 3]: < 60 nM

Molecule: Cc1nc(N[C@H]2C[C@@H](Sc3cc(F)c(F)c(F)c3)C2)nc2c1NC(=O)[C@H](C)N2C [Compound 332, (7S)-4,7,8-trimethyl-2-((cis-3-((3,4,5-trifluorophenyl)thio)cyclobutyl)amino)-7,8-dihydropteridin-6(5H)-one]
- IC50 (HepG2 XBP1(u)-Luc cells): < 600 nM
- IC50 [1, 3]: < 60 nM

Molecule: Cc1nc(NCc2cnn(Cc3ccc(C(F)(F)F)nc3)c2)nc2c1NC(=O)[C@H](C1CC1)N2C [Compound 386, (7S)-7-Cyclopropyl-4,8-dimethyl-2-(((1-((6-(trifluoromethyl)pyridin-3-yl)methyl)-1H-pyrazol-4-yl)methyl)amino)-7,8-dihydropteridin-6(5H)-one]
- IC50 (HepG2 XBP1(u)-Luc cells): < 600 nM
- IC50 [1, 3]: < 60 nM
